Read-outs that look alike come from different tables or passages of the source.

Data set [1] concerns tMEK2^MUT-induced gene activation (PR1b1, PR3, Twi1, ER5). Description: Effect of MAPK inhibitors on tMEK2^MUT-induced gene activation in tomato protoplasts. In kind it is cell-based, Tomato (Lycopersicon esculentum cv Bonny Best). The settings on record: for effect on all four genes previously activated by tMEK2^MUT: inhibitor at 1 μM in protoplast incubation buffer, genes PR1b1, PR3, Twi1, ER5 (FIG. 6); for effect on tMEK2^MUT-activated PR3 and ER5 genes / effect on tMEK2^MUT-activated PRlbl or Twi1 genes: 350 nM for SB 202190, 1 μM for SB 203580 in protoplast incubation buffer (FIG. 6). The procedure: Kinase inhibitors at the concentration of 1 μM for staurosporine, 350 nM for SB 202190 and 1 μM for PD 98059, SB 203580 and SB 202474 were included in the proteoplast incubation buffer.
The protoplasts were resuspended in electroporation buffer containing 150 mM MgCl2 and 0.4 M mannitol at a density of 1×10^6 protoplasts/ml and co-electroporated with […] of pTZ19 carrying tMEK2 gene and pJD300 carrying luciferase gene in a total volume of 500 μl as described by Leckie (1994) with some modifications. Electroporation was performed at 200 volts and 100 μF (Gene Pulser II, Bio-Rad). Protoplasts were then allowed to recover on ice in the dark for 10 min followed by centrifugation at 500 g for 5 min. After removal of the supernatant, the protoplast pellet, with about 500 μl of buffer, was supplemented with another 500 μl protoplast incubation buffer. Protoplasts were incubated in the dark at 30° C. for 24 hr.
(§1) Kinase inhibitors (CalBiochem, San Diego, Calif.) at the concentration of 1 μM for staurosporine, 350 nM for SB 202190 and 1 μM for PD 98059, SB 203580 and SB 202474, when applicable, were included in the protoplast incubation buffer.
RT-PCR was as described above. The number of PCR cycles corresponded to the high end of the range in which a linear increase in products could be detected (generally 14-16 cycles were used). Reaction products were separated on 1.0% agarose gels. Southern blot analysis was used to estimate levels of specific amplified products. Equivalence of cDNA in different samples was verified using PCR reactions for actin. Primers were designed for PCR according to published sequences for tomato PR-lbl, chitinase, Twit, ER5 and actin (Tornero et al., 1997; Danhash et al., 1993; O'Donnell et al., 1998; Zegzoutti et al. 1997; Moniz de Sa and Drouin, 1996).
To study divergence of the signal pathways downstream of tMEK2 the influence of […] expression in tomato protoplasts was examined in the presence of a broad protein kinase inhibitor (staurosporine) and inhibitors specific to the p38 class MAPK (SB 202190 or SB 203580). Staurosporine inhibited all four genes that were previously activated by tMEK2^MUT; whereas, inhibitors of p38 class MAPK inhibited the PR3 and ER5 genes but not PRlbl or Twi1. […] The results, shown in FIG. 6, are consistent with the divergence of signal pathway downstream of tMEK2. One of these pathways could include a p38 class MAPK.

In data set [2] the test system is tomato leaf mesophyll protoplasts. Description: Protoplast viability in the presence of kinase inhibitors. Type of data set: cell-based, Tomato (Lycopersicon esculentum cv Bonny Best). The settings on record: 1 μM staurosporine, 350 nM SB 202190, 1 μM PD 98059, SB 203580 and SB 202474; data not shown. The procedure:
as §1

The subject of data set [3] is myelin basic protein.
Data set [4] deals with myelin basic protein. The source holds these as a separate data set.
Data set [5] deals with PR1b1, PR3 (chitinase) and Twi1 genes. Briefly: Tomato protoplast transient expression, quantitative RT-PCR of pathogenesis-related genes. In kind it is cell-based, Tomato (Lycopersicon esculentum cv Bonny Best). To be noted: transient expression driven by tCUPΔ promoter after electroporation, 24 hr incubation, quantitative RT-PCR (FIG. 4). The text has this:
To examine the effects of tMEK2^WT and tMEK2^MUT on the activation of pathogenesis-related (PR) or other pathogen-inducible genes a tomato protoplast transient expression system was developed. Chimeric genes, tCUPΔ-tMEK2^WT-nos and tCUPΔ-tMEK2^MUT-nos, were constructed using the storing constitutive promoter, tCUPΔ, which was derived from the tCUP promoter as by modification of the mRNA leader sequence described above. After electroporation, transient expression of potential target genes was detected by quantitative RT-PCR. The genes analysed included PRlbl, which is activated by tomato mosaic virus (Tornero et al., 1997); PR3 (chitinase), which is activated during an incompatible C. fulvam-tomato interaction (Danhash et al., 1993); and Twi, which is a pathogen- and would-inducible gene recently identified in tomato (O'Donnell, et al., 1998).
Tomato (Lycopersicon esculentum cv Bonny Best) were grown at 80% relative humidity in peat soil in growth cabinets programmed for 16 hr days at 25° C. and 8 hr nights at 22° C. Light intensity was controlled at 25 pE m-2 S-1 emitted from “cool white” fluorescent lamps (Philip Canada, Scarborough, Ontario). […]
(§2) RT-PCR was as described above. The number of PCR cycles corresponded to the high end of the range in which a linear increase in products could be detected (generally 14-16 cycles were used). […]

The next data set concerns ER5 gene. Description: Tomato protoplast transient expression, quantitative RT-PCR of wound-inducible gene ER5. In kind it is cell-based, Tomato (Lycopersicon esculentum cv Bonny Best). To be noted: transient expression in tomato protoplasts, quantitative RT-PCR (FIG. 5b). The procedure:
Tomato (Lycopersicon esculentum cv Bonny Best) were grown at 80% relative humidity in peat soil in growth cabinets programmed for 16 hr days at 25° C. and 8 hr nights at 22° C. Light intensity was controlled at 25 pE m-2 S-1 emitted from “cool white” fluorescent lamps (Philip Canada, Scarborough, Ontario). The youngest fully expanded leaves were surface sterilized for 5 min in 4% sodium hypochlorite and rinsed three times with sterile water. The lower epidermis was gently rubbed with Carborundum, rinsed with sterile water and leaf fragments of ca. 1 cm^2 were floated with exposed surface facing an enzyme solution containing 0.15% macerozyme R10 (Yakult Honsha Co., Japan), 0.3% Cellulase “Onozuka” Rio (Yakult Honsha Co., Japan), 0.4 M sucrose in K3 medium (Maliga et. al., 1973). After overnight incubation at 30° C., the enzyme-protoplast mixture was filtered through a 100 μm nylon sieve, centrifuged at 500 g for 5 min. and floated protoplasts were collected and washed twice with W5 medium (Maliga et.al., 1973). The protoplasts were kept on ice in W5 medium for 2 hr before transformation. […]
as §2

`COc1cccc(-c2cc(=O)c3ccccc3o2)c1N` [PD 98059]: in data set [1], the “effect on all four genes previously activated by tMEK2^MUT” value (“effect … by tMEK2^MUT” for short) was “no effects”. Consider `CCc1nc(-c2ccc(OC)cc2)[nH]c1-c1ccncc1` [SB202474], for which the “effect … by tMEK2^MUT” value in data set [1] was “no effects”. Moreover, the “change of protoplast viability” value in data set [2] is “did not change”. For `Oc1ccc(-c2nc(-c3ccc(F)cc3)c(-c3ccncc3)[nH]2)cc1` [SB 202190], in data set [1], the “effect on tMEK2^MUT-activated PR3 and ER5 genes” value was “inhibited”; the “effect on tMEK2^MUT-activated PRlbl or Twi1 genes” value is on record as “not”. Regarding `C[S+]([O-])c1ccc(-c2nc(-c3ccc(F)cc3)c(-c3ccncc3)[nH]2)cc1` (centres unmarked) [SB 203580], in data set [1], the “effect on tMEK2^MUT-activated PR3 and ER5 genes” value is recorded as “inhibited”; the “effect on tMEK2^MUT-activated PRlbl or Twi1 genes” value is listed as “not”. Also, the “change of protoplast viability” value in data set [2] is “did not change”. `CN[C@@H]1C[C@H]2O[C@@](C)([C@@H]1OC)n1c3ccccc3c3c4c(c5c6ccccc6n2c5c31)C(=O)NC4` [Staurosporine, staurosporine]: in data set [1], the “effect … by tMEK2^MUT” value is given as “inhibited”. For the same molecule, the “change of protoplast viability” value in data set [2] is recorded as “did not change”. On to “GST-tMEK2^MUT (recombinant glutathione-S-transferase fusion of tMEK2 with serine221 and threonine226 replaced with aspartic acid)”, for which the “substrate phosphorylation (in vitro kinase assay, SDS-PAGE, autoradiography)” value in the data set on myelin basic protein [3] is “Both the wild type and mutant forms of the tMEK2 enzyme phosphorylated myelin basic protein (MPB) in vitro”.

B1: GST-tMEK2^WT (recombinant glutathione-S-transferase fusion of wild type tomato cv. Bonny Best MAP kinase kinase tMEK2) (protein)
chain: MKKGSFAPNLKLSLPPPDEVALSKFLTESGTFKDGDLLVNRDGVRIVSQSEVAAPSVIQPSDNQLCLADFEAVKVIGKGNGGIVRLVQHKWTGQFFALKVIQMNIDESMRKHIAQELRINQSSQCPYVVICYQSFFDNGAISLILEYMDGGSLADFLKKVKTIPERFLAVICKQVLKGLWYLHHEKHIIHRDLKPSNLLINHRGDVKITDFGVSAVLASTSGLANTFVGTYNYMSPERISGGAYDYKSDIWSLGLVLLECATGHFPYKPPEGDEGWVNVYELMETIVDQPEPCAPPDQFSPQFCSFISACVQKHQKDRLSANDLMSHPFITMYDDQDIDLGSYFTSAGPPLATLTEL
Consider B1, for which the “substrate phosphorylation (in vitro kinase assay, SDS-PAGE, autoradiography)” value in the data set with myelin basic protein [4] is “Both the wild type and mutant forms of the tMEK2 enzyme phosphorylated myelin basic protein (MPB) in vitro”.

B2: tMEK2^WT: wild type MAPKK gene tMEK2 isolated from tomato cv. Bonny Best, expressed from tCUPΔ promoter (protein)
chain: B1 chain
modifications: left off: a dimerising Fc or GST
B2: the “activation of tomato PRlbl, chitinase and Twil genes” value in data set [5] is on record as “no effect”. Also, the “activation of ER5 gene” value with ER5 gene was “did not”.
